From the NIST ThermoML archive (doi:10.1016/j.jct.2009.05.009)
Numbers after ± are expanded uncertainties.

Assay: xn = mol fraction of the nth substance listed
Conditions: 101.3 kPa, Liquid, Vibrating tube method

CCOS(=O)(=O)[O-].CCn1cc[n+](C)c1 [1-ethyl-3-methylimidazolium ethyl sulfate] + O
mass density [kg/m3]
Conditions | 293.15 K | 298.15 K | 303.15 K | 308.15 K | 313.15 K | 318.15 K
x2 = 0 | 1242.4 ± 2.4 | 1239.4 ± 2.4 | 1236.3 ± 2.4 | 1233.3 ± 2.3 | 1230.2 ± 2.3 | 1227.2 ± 2.3
x2 = 0.0514 | 1241.4 ± 2.3 | 1238.3 ± 2.3 | 1235.2 ± 2.3 | 1232.2 ± 2.3 | 1229.1 ± 2.3 | 1226.1 ± 2.3
x2 = 0.13 | 1239.8 ± 2.2 | 1236.8 ± 2.2 | 1233.6 ± 2.2 | 1230.6 ± 2.2 | 1227.4 ± 2.2 | 1224.4 ± 2.2
x2 = 0.1783 | 1238.8 ± 2.2 | 1235.7 ± 2.2 | 1232.6 ± 2.2 | 1229.5 ± 2.2 | 1226.3 ± 2.2 | 1223.3 ± 2.2
x2 = 0.2168 | 1237.8 ± 2.2 | 1234.7 ± 2.2 | 1231.5 ± 2.2 | 1228.5 ± 2.2 | 1225.4 ± 2.2 | 1222.3 ± 2.2
x2 = 0.2642 | 1236.4 ± 2.2 | 1233.3 ± 2.2 | 1230.2 ± 2.2 | 1227.1 ± 2.2 | 1223.9 ± 2.2 | 1220.8 ± 2.2
x2 = 0.3054 | 1235 ± 2.2 | 1232 ± 2.1 | 1228.8 ± 2.1 | 1225.8 ± 2.1 | 1222.6 ± 2.1 | 1219.5 ± 2.1
x2 = 0.3568 | 1233 ± 2.1 | 1230 ± 2.1 | 1226.9 ± 2.1 | 1223.9 ± 2.1 | 1220.7 ± 2.1 | 1217.6 ± 2.1
x2 = 0.4008 | 1231.2 ± 2.1 | 1228 ± 2.1 | 1225 ± 2.1 | 1221.9 ± 2.1 | 1218.7 ± 2.1 | 1215.6 ± 2.1
x2 = 0.4613 | 1228.1 ± 2.1 | 1225.2 ± 2.1 | 1222 ± 2.1 | 1218.9 ± 2.1 | 1215.6 ± 2.1 | –
x2 = 0.5002 | 1225.9 ± 2.1 | 1222.9 ± 2.2 | 1219.7 ± 2.2 | 1216.6 ± 2.2 | 1213.4 ± 2.2 | –
x2 = 0.5584 | 1221.8 ± 2.2 | 1218.8 ± 2.2 | 1215.6 ± 2.2 | 1212.4 ± 2.2 | 1209.2 ± 2.2 | –
x2 = 0.6124 | 1217.1 ± 2.3 | 1213.9 ± 2.3 | 1210.8 ± 2.3 | 1207.6 ± 2.3 | 1204.4 ± 2.3 | –
x2 = 0.6698 | 1210.7 ± 2.4 | 1207.4 ± 2.4 | 1204.1 ± 2.4 | 1200.9 ± 2.4 | 1197.6 ± 2.4 | –
x2 = 0.7125 | 1204.3 ± 2.7 | 1200.8 ± 2.7 | 1197.6 ± 2.7 | 1194.3 ± 2.7 | 1190.9 ± 2.7 | –
x2 = 0.7635 | 1194.2 ± 3 | 1190.4 ± 3 | 1187.1 ± 3 | 1184 ± 3.1 | 1180.6 ± 3.1 | –
x2 = 0.8006 | 1184.2 ± 3.9 | 1180.5 ± 3.9 | 1177.2 ± 3.9 | 1173.6 ± 3.9 | 1170.3 ± 3.9 | –
x2 = 0.8497 | 1165.4 ± 5.1 | 1162.1 ± 5.1 | 1158.8 ± 5 | 1155.5 ± 5.1 | 1152.3 ± 5 | –
x2 = 0.8963 | 1139.3 ± 12 | 1135.6 ± 12 | 1132.8 ± 12 | 1129 ± 12 | 1126 ± 12 | –
